{
  "source": "paper PMC5175396",
  "about": "“Cytotoxicity of Plumbagin, Rapanone and 12 other naturally occurring Quinones from Kenyan Flora towards human carcinoma cells” (BMC Pharmacology & Toxicology, 2016)",
  "key": {"[1]": {"system": "DLD-1 colorectal adenocarcinoma cell lines", "test": "Neutral red (NR) uptake cytotoxicity assay, DLD-1", "format": "cell-based, human", "details": "for IC50: Homo sapiens, DLD-1, neutral red assay, 72 h incubation, read-out: IC50 DLD-1", "excerpt": "(§1) Six human cancer cell lines and one normal cell line were used in this study. They included A549 human non-small cell lung cancer (NSCLC) cell line, obtained from the Institute for Fermentation, Osaka (IFO, Japan) and provided by Prof. Dr. Tansu Koparal (Anadolu University, Eskisehir, Turkey), SPC212 human mesothelioma cell line obtained from American Type Culture Collection (ATCC) and provided by Dr. Asuman Demiroğlu Zergeroğlu (Gebze Technical University, Kocaeli, Turkey), DLD-1 colorectal adenocarcinoma cell lines obtained from ATCC (CCL-221), Caco2 colorectal adenocarcinoma cells (ATCC, HTB-37) obtained from the ŞAP Institute of Turkey (Ankara), HepG2 hepatocarcinoma cells (ATCC, HB-8065) and MCF-7 breast adenocarcinoma cells (ATCC, HTB-22) were provided by Prof. Dr. Tansu Koparal (Anadolu University, Eskisehir, Turkey). The normal CRL2120 human skin fibroblasts were obtained from ATCC [CCD1094Sk (ATCC, CRL-2120)]. The cells were maintained as a monolayer in DMEM medium (Sigma-aldrich, Munich, Germany) medium supplemented with 10% fetal calf serum and 1% penicillin (100 U/mL)-streptomycin (100 μg/mL) in a humidified 5% CO2 atmosphere at 37 °C.\n(§2) The cytotoxicity of samples was performed by NR uptake assay as previously described. This method is based on the ability of viable cells to incorporate and bind the supravital dye NR in the lysosomes. The procedure is cheaper and more sensitive than other cytotoxicity tests. […] Briefly, cells were detached by treatment with 0.25% trypsin/EDTA (Invitrogen) and an aliquot of 1 × 10^4 cells was placed in each well of a 96-well cell culture plate […]. The cells were allowed to attach overnight and subsequently treated with different concentrations of the 14 compounds. Each of the studied samples was immediately added in varying concentrations in additional 100 μL of culture medium to obtain a total volume of […]/well. After 72 h incubation in humidified 5% CO2 atmosphere at 37 °C, the medium was removed and 200 μL fresh medium containing 50 μg/mL NR was added to each well and incubation continued for an additional 3 h at 37 °C in 5% CO2 atmosphere. The dye medium was then removed and each well was then washed rapidly with 200 μL phosphate buffer saline (PBS) followed by addition of 200 μL of acetic acid-water-ethanol in water (1:49:50). The plates were kept for 15 min at room temperature to extract the dye and then shaken for a few minutes on a GFL 3012 shaker (Gesellschaft für Labortechnik mbH, Burgwedel, Germany). Absorbance was measured on ELx 808 Ultra Microplate Reader (Biotek) equipped with a 540 nm filter. Each assay was done at least three times, with three replicates each. The viability was evaluated based on a comparison with untreated cells. The IC50 values represent the sample’s concentrations required to inhibit 50% of cell proliferation and were calculated from a calibration curve by linear regression using Microsoft Excel."}, "[2]": {"system": "Caco2 colorectal adenocarcinoma cells", "test": "Neutral red (NR) uptake cytotoxicity assay, Caco-2", "format": "cell-based, human", "details": "Homo sapiens, Caco-2; neutral red assay, 72 h incubation", "excerpt": "as §1, §2"}, "[3]": {"test": "Neutral red (NR) uptake cytotoxicity assay, Caco-2", "format": "cell-based, human", "details": "human; IC50 in CRL2120 normal fibroblasts divided by IC50 in Caco-2; read-out: selectivity index Caco-2 (converted)", "excerpt": "as §1, §2"}, "[4]": {"system": "normal CRL2120 human skin fibroblasts", "test": "Neutral red (NR) uptake cytotoxicity assay, normal CRL2120 fibroblasts", "format": "cell-based", "details": "Skin fibroblast, 72 h incubation", "excerpt": "as §1, §2"}, "[5]": {"system": "six tested cancer cell lines (A549, SPC212, DLD-1, Caco-2, MCF-7, HepG2)", "test": "Neutral red uptake assay, statements over the six tested cancer cell lines", "format": "cell-based, human", "excerpt": "as §1, §2"}, "[6]": {"system": "SPC212 human mesothelioma cell line", "test": "Neutral red (NR) uptake cytotoxicity assay, SPC212", "format": "cell-based", "details": "for selectivity index SPC212: IC50 in CRL2120 normal fibroblasts divided by IC50 in SPC212", "excerpt": "as §1, §2"}, "[7]": {"system": "A549 human non-small cell lung cancer (NSCLC) cell line", "test": "Neutral red (NR) uptake cytotoxicity assay, A549", "format": "cell-based", "details": "for IC50: Homo sapiens, A549, 72 h, neutral red assay, 72 h incubation; for selectivity index A549: IC50 in CRL2120 normal fibroblasts divided by IC50 in A549", "excerpt": "as §1\nas §2, with “lysosomes.” for “lysosomes. The procedure is cheaper and more sensitive than other cytotoxicity tests.”"}},
  "data": [
    {"smiles": "CC1=CC(=O)c2c(O)cccc2C1=O", "note": "[Compound 4, 5-hydroxy-2-methyl-1,4-naphthalenedione]", "values": [
      {"measurement": "IC50", "setting": "[1]", "value": "0.98 ± 0.11", "unit": "µM"},
      {"measurement": "IC50", "setting": "[2]", "value": "0.07 ± 0.01", "unit": "µM"},
      {"measurement": "selectivity ratio at 72 h", "setting": "[3]", "value": 967},
      {"measurement": "IC50", "setting": "[4]", "value": "67.7 ± 6.49", "unit": "µM"},
      {"measurement": "selectivity indexes (CRL2120 vs carcinoma cells), lower bound over the cancer cell lines", "setting": "[5]; IC50 CRL2120 / IC50 cancer cell line", "value": "> 59"},
      {"measurement": "IC50", "setting": "[6]; Homo sapiens, 72 h, neutral red assay, 72 h incubation, read-out: IC50 SPC212", "value": "0.27 ± 0.01", "unit": "µM"},
      {"measurement": "selectivity index SPC212", "setting": "[6]", "value": 250.59},
      {"measurement": "IC50", "setting": "[7]", "value": "1.14 ± 0.02", "unit": "µM"},
      {"measurement": "selectivity index A549", "setting": "[7]", "value": 59.35}
    ]},
    {"smiles": "CCCCCCCCCCCCCC1=C(O)C(=O)C=C(O)C1=O", "note": "[Compound 9, 2,5-dihydroxy-3-tridecyl-2,5-cyclohexadiene-1,4-dione]", "values": [
      {"measurement": "IC50", "setting": "[1]", "value": "46.6 ± 5.38", "unit": "µM"},
      {"measurement": "selectivity index DLD-1", "setting": "[1]; IC50 in CRL2120 normal fibroblasts divided by IC50 in DLD-1", "value": 2.04},
      {"measurement": "IC50", "setting": "[2]", "value": "22.95 ± 0.13", "unit": "µM"},
      {"measurement": "selectivity ratio at 72 h", "setting": "[3]", "value": 4.15},
      {"measurement": "IC50", "setting": "[4]", "value": "95.2 ± 6.65", "unit": "µM"},
      {"measurement": "IC50", "setting": "[5]; Homo sapiens, bound valid for all six cancer cell lines, neutral red assay", "value": "< 100", "unit": "µM"},
      {"measurement": "selectivity index SPC212", "setting": "[6]", "value": 41.96},
      {"measurement": "IC50", "setting": "[7]", "value": "27.4 ± 1.46", "unit": "µM"},
      {"measurement": "selectivity index A549", "setting": "[7]", "value": 3.48}
    ]}
  ]
}
